According to the NIST ThermoML archive (doi:10.1016/j.tca.2013.06.031):

Assay: mn = molality of the nth substance listed, in mol/kg
Details: 101 kPa, Liquid; for viscosity: Capillary tube (Ostwald / Ubbelohde) method; for mass density: Vibrating tube method

CO/N=C(\C(=O)N[C@@H]1C(=O)N2C(C(=O)[O-])=C(CSc3nc(C)c(CC(=O)[O-])s3)CS[C@H]12)c1csc(N)n1.[Na+].[Na+] + O
Details | mass density [kg/m3] | viscosity [mPa·s]
278.15 K, m1 = 0.01 | 1002.35 | 1.551
278.15 K, m1 = 0.03 | 1006.68 | 1.609
278.15 K, m1 = 0.05 | 1010.63 | 1.667
278.15 K, m1 = 0.07 | 1014.39 | 1.724
278.15 K, m1 = 0.09 | 1018.03 | 1.783
278.15 K, m1 = 0.11 | 1021.6 | 1.839
278.15 K, m1 = 0.13 | 1025.13 | 1.9
278.15 K, m1 = 0.15 | 1028.54 | 1.962
283.15 K, m1 = 0.01 | 1002.07 | 1.33
283.15 K, m1 = 0.03 | 1006.36 | 1.381
283.15 K, m1 = 0.05 | 1010.27 | 1.431
283.15 K, m1 = 0.07 | 1014 | 1.479
283.15 K, m1 = 0.09 | 1017.61 | 1.529
283.15 K, m1 = 0.11 | 1021.14 | 1.577
283.15 K, m1 = 0.13 | 1024.59 | 1.63
283.15 K, m1 = 0.15 | 1027.97 | 1.682
288.15 K, m1 = 0.01 | 1001.45 | 1.153
288.15 K, m1 = 0.03 | 1005.68 | 1.197
288.15 K, m1 = 0.05 | 1009.58 | 1.24
288.15 K, m1 = 0.07 | 1013.27 | 1.282
288.15 K, m1 = 0.09 | 1016.85 | 1.326
288.15 K, m1 = 0.11 | 1020.33 | 1.367
288.15 K, m1 = 0.13 | 1023.74 | 1.413
288.15 K, m1 = 0.15 | 1027.06 | 1.458
293.15 K, m1 = 0.01 | 1000.53 | 1.016
293.15 K, m1 = 0.03 | 1004.71 | 1.055
293.15 K, m1 = 0.05 | 1008.6 | 1.094
293.15 K, m1 = 0.07 | 1012.24 | 1.13
293.15 K, m1 = 0.09 | 1015.8 | 1.169
293.15 K, m1 = 0.11 | 1019.24 | 1.206
293.15 K, m1 = 0.13 | 1022.59 | 1.246
293.15 K, m1 = 0.15 | 1025.89 | 1.285
298.15 K, m1 = 0.01 | 999.36 | 0.9017
298.15 K, m1 = 0.03 | 1003.52 | 0.9359
298.15 K, m1 = 0.05 | 1007.36 | 0.9694
298.15 K, m1 = 0.07 | 1010.99 | 1.002
298.15 K, m1 = 0.09 | 1014.51 | 1.036
298.15 K, m1 = 0.11 | 1017.91 | 1.069
298.15 K, m1 = 0.13 | 1021.27 | 1.104
298.15 K, m1 = 0.15 | 1024.52 | 1.14
303.15 K, m1 = 0.01 | 997.94 | 0.8062
303.15 K, m1 = 0.03 | 1002.05 | 0.8369
303.15 K, m1 = 0.05 | 1005.88 | 0.8669
303.15 K, m1 = 0.07 | 1009.48 | 0.8964
303.15 K, m1 = 0.09 | 1012.96 | 0.9263
303.15 K, m1 = 0.11 | 1016.34 | 0.9559
303.15 K, m1 = 0.13 | 1019.64 | 0.9862
303.15 K, m1 = 0.15 | 1022.89 | 1.019
308.15 K, m1 = 0.01 | 996.31 | 0.7252
308.15 K, m1 = 0.03 | 1000.43 | 0.7532
308.15 K, m1 = 0.05 | 1004.18 | 0.7799
308.15 K, m1 = 0.07 | 1007.75 | 0.8066
308.15 K, m1 = 0.09 | 1011.2 | 0.8336
308.15 K, m1 = 0.11 | 1014.55 | 0.8594
308.15 K, m1 = 0.13 | 1017.85 | 0.8867
308.15 K, m1 = 0.15 | 1021.04 | 0.9172
313.15 K, m1 = 0.01 | 994.47 | 0.6576
313.15 K, m1 = 0.03 | 998.57 | 0.682
313.15 K, m1 = 0.05 | 1002.27 | 0.707
313.15 K, m1 = 0.07 | 1005.83 | 0.7314
313.15 K, m1 = 0.09 | 1009.24 | 0.7559
313.15 K, m1 = 0.11 | 1012.57 | 0.7783
313.15 K, m1 = 0.13 | 1015.83 | 0.8042
313.15 K, m1 = 0.15 | 1018.99 | 0.8303
